In brackets after ≈: the same amount, converted by molar mass.

Assay in all cases: In vitro antibacterial activity (MIC assay), broth microdilution
What all share (assay type): cell-based

One test deals with S. pneumoniae ATCC49619. The note with it: Streptococcus pneumoniae, ATCC49619; read-out: S. pneumoniae ATCC49619 MIC. The protocol:
(§1) Minimal inhibitory concentration (MIC) has been an indicator of in vitro antibacterial activity widely used in the art. The in vitro antibacterial activity of the compounds was determined by the broth microdilution method described by the National Committee for Clinical Laboratory Standards (NCCLS) in the NCCLS Document M7-A5, Vol. 20, No. 2, “Methods for Dilution Antimicrobial Susceptibility Test for Bacteria that Grow Aerobically—Fifth Edition”, which is incorporated herein by reference.
(§2) In this method, an aliquot of test compound from an 11-point series of 2-fold serial dilutions of compounds in 100% DMSO was added to wells in microdilution plates. The test organisms were prepared by adjusting the turbidity of actively growing broth cultures so that the final concentration of test organism after addition to wells with or without compounds was approximately 5×10^5 CFU/mL.
(§3) Following inoculation of the microdilution plates, the plates were incubated at 35° C. for 16-24 h and then scored for bacterial growth. […] The amount of growth in the wells containing the test compound was compared with the amount of growth in the growth-control wells (no test compound used) in each plate, and with the amount of growth in the wells containing control compounds (such as ciprofloxacin). Compounds of the present invention were tested against several bacterial strains. The MIC values (in μg/mL) are presented in Table 1 for Gram-negative (E. coli KL-16 (GSC strain 4245); data marked as (*) was obtained with E. coli ATCC25922) and Gram-positive bacteria (S. aureus ATCC13709; S. pneumoniae ATCC49619).

The test system of another test is S. aureus ATCC13709. Particulars: Staphylococcus aureus, ATCC13709; read-out: S. aureus ATCC13709 MIC. The protocol:
as §1, §2, §3

In test [1] the test system is E. coli KL-16 (GSC strain 4245). The note with it: Escherichia coli. The procedure:
as §1, §2, §3

Consider `COc1ccc2nccc(-n3cc4c(n3)CCC(NC(=O)c3ccc(OC)c([N+](=O)[O-])c3)C4)c2n1` (stereo not drawn) [Example 119, 4-Methoxy-N-[2-(6-methoxy-[1,5]naphthyridin-4-yl)-4,5,6,7-tetrahydro-2H-indazol-5-yl]-3-nitro-benzamide], for which the minimum inhibitory concentration (MIC) was 8 µg/mL (≈ 16.9 µM) in the test on S. pneumoniae ATCC49619, 4 µg/mL (≈ 8.43 µM) in the test on S. aureus ATCC13709 and > 128 µg/mL in test [1].

Consider `COc1ccc2nccc(-n3cc4c(n3)CCC(NCC(=O)Nc3cccc(C(F)(F)F)c3)C4)c2n1` (stereo not drawn) [Example 122, 2-[2-(6-Methoxy-[1,5]naphthyridin-4-yl)-4,5,6,7-tetrahydro-2H-indazol-5-ylamino]-N-(3-trifluoromethyl-phenyl)-acetamide], for which the MIC was 32 µg/mL (≈ 64.5 µM) in the test on S. pneumoniae ATCC49619, 2 µg/mL (≈ 4.03 µM) in the test on S. aureus ATCC13709 and > 128 µg/mL in test [1].

Take `COc1ccc2nccc(-n3cc4c(n3)CCC(NCC(=O)Nc3cccc(Cl)c3)C4)c2n1` (stereo not drawn) [Example 123, N-(3-Chloro-phenyl)-2-[2-(6-methoxy-[1,5]naphthyridin-4-yl)-4,5,6,7-tetrahydro-2H-indazol-5-ylamino]-acetamide]: the MIC in the test on S. pneumoniae ATCC49619 was > 128 µg/mL; with S. aureus ATCC13709 it was 1 µg/mL (≈ 2.16 µM); in test [1], > 128 µg/mL.

Take `COc1ccc2nccc(-n3cc4c(n3)CCC(NC(=O)c3cc(NC(C)=O)ccc3Br)C4)c2n1` (stereo not drawn) [Example 124, 5-Acetylamino-2-bromo-N-[2-(6-methoxy-[1,5]naphthyridin-4-yl)-4,5,6,7-tetrahydro-2H-indazol-5-yl]-benzamide]: the minimal inhibitory concentration (MIC) in the test on S. pneumoniae ATCC49619 is > 128 µg/mL; in the test with S. aureus ATCC13709, 4 µg/mL (≈ 7.47 µM); in test [1] it was > 128 µg/mL.

In the case of `COc1ccc2nccc(-n3cc4c(n3)CCC(NC(=O)c3cc(F)c(Cl)cc3Cl)C4)c2n1` (stereo not drawn) [Example 125, 2,4-Dichloro-5-fluoro-N-[2-(6-methoxy-[1,5]naphthyridin-4-yl)-4,5,6,7-tetrahydro-2H-indazol-5-yl]-benzamide], the figures for the MIC (in the test on S. pneumoniae ATCC49619; with S. aureus ATCC13709; in test [1]) were 8 µg/mL (≈ 16.4 µM), 0.25 µg/mL (≈ 0.514 µM) and > 128 µg/mL, respectively.

For `COc1ccc2nccc(-n3cc4c(n3)CCC(NCc3ccc(N(C)C)c(C#N)c3F)C4)c2c1` (stereo not drawn) [Example 126, 6-Dimethylamino-2-fluoro-3-{[2-(6-methoxy-quinolin-4-yl)-4,5,6,7-tetrahydro-2H-indazol-5-ylamino]-methyl}-benzonitrile], the results for the MIC (with S. pneumoniae ATCC49619; in the test with S. aureus ATCC13709; in test [1]) were 2 µg/mL (≈ 4.25 µM), 1 µg/mL (≈ 2.13 µM) and > 128 µg/mL, respectively.

In the case of `COc1ccc2nccc(-n3cc4c(n3)CCC(NC(=O)c3cc(F)c5c(c3)OCCO5)C4)c2n1` (stereo not drawn) [Example 127, 8-Fluoro-2,3-dihydro-benzo[1,4]dioxine-6-carboxylic acid [2-(6-methoxy-[1,5]naphthyridin-4-yl)-4,5,6,7-tetrahydro-2H-indazol-5-yl]-amide], the MIC in the test with S. pneumoniae ATCC49619 is 8 µg/mL (≈ 16.8 µM); in the test with S. aureus ATCC13709, 0.5 µg/mL (≈ 1.05 µM); in test [1], > 128 µg/mL.

In the case of `COc1ccc2nccc(-n3cc4c(n3)CCC(NC(=O)c3cc(F)c5c(c3)OCCO5)C4)c2c1` (stereo not drawn) [Example 128, 8-Fluoro-2,3-dihydro-benzo[1,4]dioxine-6-carboxylic acid [2-(6-methoxy-quinolin-4-yl)-4,5,6,7-tetrahydro-2H-indazol-5-yl]-amide], the MIC is 8 µg/mL (≈ 16.9 µM) with S. pneumoniae ATCC49619, 2 µg/mL (≈ 4.22 µM) with S. aureus ATCC13709 and > 128 µg/mL in test [1].

Values taken from patent US8242275B2, “Bicyclic pyrazole compounds as antibacterial agents” (Janssen Pharmaceutica NV, priority 2005, dated 2012).
